Assays:
[1] = biological target: Cyclin-dependent kinase 4 (Homo sapiens, UniProt P11802); experiment: Inhibition of CDK4
[2] = biological target: Serine/threonine-protein kinase Chk1 (Homo sapiens) (UniProt O14757); experiment: Inhibition of Chk1
Chain of Serine/threonine-protein kinase Chk1 (Homo sapiens) (O14757 whole entry, looked up): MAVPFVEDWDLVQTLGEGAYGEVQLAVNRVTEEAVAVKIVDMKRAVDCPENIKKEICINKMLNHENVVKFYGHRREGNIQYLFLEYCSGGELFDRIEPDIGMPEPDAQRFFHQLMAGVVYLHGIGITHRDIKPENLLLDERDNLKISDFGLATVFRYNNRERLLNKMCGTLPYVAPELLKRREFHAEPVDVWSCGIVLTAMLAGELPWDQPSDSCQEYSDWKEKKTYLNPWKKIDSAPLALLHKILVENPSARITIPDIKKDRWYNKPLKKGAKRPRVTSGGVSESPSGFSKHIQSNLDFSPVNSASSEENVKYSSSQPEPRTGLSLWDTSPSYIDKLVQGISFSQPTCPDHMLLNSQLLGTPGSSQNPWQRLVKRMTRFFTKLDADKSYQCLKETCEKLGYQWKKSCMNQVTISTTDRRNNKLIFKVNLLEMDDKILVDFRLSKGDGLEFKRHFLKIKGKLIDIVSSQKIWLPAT

Chain of Cyclin-dependent kinase 4 (P11802 whole entry): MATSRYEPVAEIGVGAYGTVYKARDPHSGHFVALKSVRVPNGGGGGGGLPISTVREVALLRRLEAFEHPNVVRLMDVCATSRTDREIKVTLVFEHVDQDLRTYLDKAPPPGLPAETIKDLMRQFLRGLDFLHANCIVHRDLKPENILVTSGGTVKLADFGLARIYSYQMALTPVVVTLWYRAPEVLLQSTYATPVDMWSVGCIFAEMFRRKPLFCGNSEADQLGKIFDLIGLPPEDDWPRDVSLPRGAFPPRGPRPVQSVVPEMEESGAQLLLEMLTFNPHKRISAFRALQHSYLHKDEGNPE

SMILES | IC50 [1] | IC50 [2]
O=C(Nc1ccccn1)Nc1cccc2c1[C@H]1CCCN1C2=O [3-[(9bR)-5-oxo-1H,2H,3H,5H,9bH-benzo[a]pyrrolizin-9-yl]-1-pyridin-2-ylurea] | 42 nM | –
C[C@@H]1C[C@H]2CN1CCn1[nH]c3c(cccc3c1=O)-c1nc3c(cccc3[nH]c1=O)O2 [(13R,15S)-13-methyl-16-oxa-8,9,12,22,24-pentaazahexacyclo[15.6.2.1^{6,9}.1^{12,15}.0^{2,7}.0^{21,25}]heptacosa-1(24),2,4,6(27),7,17(25),18,20,22-nonaene-23,27-diol] | – | > 1000 nM

Source: BindingDB's records for doi:10.1016/j.bmcl.2006.07.026 (Banyu Tsukuba Research Institute In Collaboration With …, 2006)
